{"source": "paper PMC6099358", "about": "(Diabetes, Obesity & Metabolism, 2018)", "origin": "cited, not measured here", "tested_on": "participants with T1DM", "conditions": "cited from earlier work; for DKA events, certain / DKA events, potential: 24 weeks", "note": "Like-named read-outs stand apart in the source and are kept apart here.", "data": [{"smiles": "CCOc1ccc(Cc2cc([C@@H]3O[C@H](CO)[C@@H](O)[C@H](O)[C@H]3O)ccc2Cl)cc1", "note": "[dapagliflozin]", "values": [{"measurement": "DKA events, certain", "setting": "5 mg", "value": "4 [1%] participants [%]"}, {"measurement": "DKA events, potential", "setting": "5 mg", "value": "16 [6%] participants [%]"}, {"measurement": "DKA events, certain", "setting": "10 mg", "value": "5 [2%] participants [%]"}, {"measurement": "DKA events, potential", "setting": "10 mg", "value": "19 [6%] participants [%]"}]}, {"smiles": "Cc1ccc([C@@H]2O[C@H](CO)[C@@H](O)[C@H](O)[C@H]2O)cc1Cc1ccc(-c2ccc(F)cc2)s1", "note": "[canagliflozin]", "values": [{"measurement": "DKA", "setting": "100 mg, vs placebo 0", "value": "5 [4.3%] participants [%]"}, {"measurement": "DKA", "setting": "300 mg, vs placebo 0", "value": "7 [6.0%] participants [%]"}]}, {"smiles": "CCOc1ccc(Cc2cc([C@@H]3O[C@H](SC)[C@@H](O)[C@H](O)[C@H]3O)ccc2Cl)cc1", "note": "[sotagliflozin]", "values": [{"measurement": "DKA", "setting": "vs placebo 4 [0.6%]", "value": "21 [3.0%] participants [%]"}]}]}
